Legend:
[1] = biological target: T1, MglA–SspA complex (heterodimer) (Francisella tularensis, UniProt Q5NFG1+Q5NHJ6)
[2] = biological target: T1, MglA–SspA complex (heterodimer); experiment: biochemical

T1 sequence (Q5NFG1 1-205): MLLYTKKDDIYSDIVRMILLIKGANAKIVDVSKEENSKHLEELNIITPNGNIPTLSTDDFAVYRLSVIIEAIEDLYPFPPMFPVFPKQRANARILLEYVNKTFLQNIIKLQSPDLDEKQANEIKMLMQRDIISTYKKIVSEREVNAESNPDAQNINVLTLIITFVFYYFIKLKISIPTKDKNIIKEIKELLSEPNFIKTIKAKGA
T1 sequence (Q5NHJ6 1-210): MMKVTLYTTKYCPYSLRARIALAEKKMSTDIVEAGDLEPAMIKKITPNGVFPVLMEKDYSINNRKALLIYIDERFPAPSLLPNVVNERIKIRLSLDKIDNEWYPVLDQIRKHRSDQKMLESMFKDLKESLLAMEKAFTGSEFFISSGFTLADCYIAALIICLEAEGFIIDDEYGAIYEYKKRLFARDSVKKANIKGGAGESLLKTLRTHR

| SMILES | DRaCALA competition against 32P-ppGpp [1] | Kd [2] [µM] |
| --- | --- | --- |
| Nc1nc2c(ncn2[C@@H]2O[C@H](COP(=O)(O)OP(=O)(O)OP(=O)(O)O)[C@@H](O)[C@H]2O)c(=O)[nH]1 [GTP] | GTP competed weakly, and ATP, CTP, and UTP showed no detectable competition |  |
| Nc1nc2c(ncn2[C@@H]2O[C@H](COP(=O)(O)OP(=O)(O)O)[C@@H](OP(=O)(O)OP(=O)(O)O)[C@H]2O)c(=O)[nH]1 [ppGpp] |  | ~12 |
